Test results as given in PubChem BioAssay (NCI).
Several values for one entry are separate records, joined by “and”; a condition that tells them apart may be missing. Equal entries are not always repeated.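 48-hour exposure; five concentrations; linearly interpolated endpoints. Here, GI50 denotes the concentration required for 50% inhibition of growth. TGI marks complete inhibition of growth.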

Tests used:
Test in all cases: DTP human tumour cell line panel, 48 h
OVCAR-8 ovarian = test system: OVCAR-8 ovarian
OVCAR-3 ovarian = test system: OVCAR-3 ovarian
PC-3 prostate = test system: PC-3 prostate
NCI/ADR-RES ovarian = test system: NCI/ADR-RES ovarian
RXF 393 renal = test system: RXF 393 renal
OVCAR-5 ovarian = test system: OVCAR-5 ovarian
HT29 colon = test system: HT29 colon
CCRF-CEM leukemia = test system: CCRF-CEM leukemia
M14 melanoma = test system: M14 melanoma
HCT-116 colon = test system: HCT-116 colon

Row | Compound | TGI (OVCAR-8 ovarian) [µM] | TGI (OVCAR-3 ovarian) [µM] | TGI (PC-3 prostate) [µM] | TGI (NCI/ADR-RES ovarian) [µM] | TGI (RXF 393 renal) | TGI (OVCAR-5 ovarian) [µM] | TGI (HT29 colon) [µM] | TGI (CCRF-CEM leukemia) [µM] | TGI (M14 melanoma) | TGI (HCT-116 colon) | GI50 (HCT-116 colon) | GI50 (PC-3 prostate) [µM] | GI50 (NCI/ADR-RES ovarian) [µM] | GI50 (RXF 393 renal) | GI50 (OVCAR-5 ovarian) [µM] | GI50 (HT29 colon) [µM] | GI50 (M14 melanoma) [µM]
1 | COc1ccc(Cn2nc(OCc3ccccn3)c3cc([N+](=O)[O-])ccc32)cc1 | > 100 | > 100 | > 100 | > 100 | > 100 µM | > 100 | > 100 | > 100 | > 100 µM |  |  |  |  |  |  |  | 
2 | C/C(=N\N(C)C)C(CN(C)C)C(c1ccccc1)c1c(O)c2ccccc2oc1=O (centres undefined) | > 100 | > 100 |  |  | > 100 µM | > 100 | > 100 | > 100 | > 100 µM | > 100 µM |  |  |  |  |  |  | 
3 | Cc1ccc(S(=O)(=O)Nn2c(-c3ccccc3)c(C#N)c(-c3ccc([N+](=O)[O-])cc3)c(C#N)c2=O)cc1 | > 100 |  | > 100 | > 100 | > 100 µM | > 100 | > 100 | > 100 | > 100 µM | > 100 µM |  |  |  |  |  |  | 
4 | COc1cc2c3c(n(CCCNCCO)c(=O)c2cc1OC)-c1cc2c(cc1C3=O)OCO2 | 5.34 | 5.3 |  | > 100 | 1.26 µM and 5.75 µM |  | 0.589 |  | 0.573 µM and 0.679 µM | 1.05 µM and 0.686 µM | 0.0662 µM and 0.0639 µM | 10.2 | 0.295 | 0.139 µM and 0.268 µM | 14.4 | 0.0502 | 0.0575
5 | O=c1c(Cc2ccc(Cl)cc2)nnc2sc(-c3ccc([N+](=O)[O-])cc3)nn12 | > 100 |  | 47.2 | > 100 | 74.1 µM | 88.1 | > 100 | 55.8 | 39.2 µM | 48.8 µM |  |  |  |  |  |  | 
6 | Cc1ccc2ccccc2c1CC1S(=O)(=O)OCCOS1(=O)=O | 37.1 | 19.5 | 24.3 | 72.4 |  | 24.4 | 27.1 | 27.1 | 28.7 µM | 26 µM |  |  |  |  |  |  | 
7 | CN(C)c1ccc(-c2nc(-c3cc4c(ccc5ccccc54)oc3=O)cs2)cc1 | > 100 |  | > 100 | > 100 | > 100 µM | > 100 | > 100 | > 100 | > 100 µM | > 100 µM |  |  |  |  |  |  | 
8 | C/C(=N\N=C(N)N)c1c(C(=O)OCCCCCCOC(=O)c2nc3sccn3c2/C(C)=N/N=C(N)N)nc2sccn12 | > 100 |  | > 100 | > 100 | > 100 µM | > 100 | > 100 | 63.2 | > 100 µM | > 100 µM |  |  |  |  |  |  | 
9 | CC(=O)N(C(C)=O)n1c(Cc2ccc(Cl)cc2)nn(C(C)=O)c1=O | > 100 | > 100 | > 100 | > 100 | > 100 µM | > 100 | > 100 | > 100 | > 100 µM |  |  |  |  |  |  |  | 
10 | Cc1ccc(Nc2nc(=O)[nH]c(=O)[nH]2)cc1N | > 100 | > 100 | > 100 | > 100 |  | > 100 | > 100 | > 100 | > 100 µM | > 100 µM |  |  |  |  |  |  | 
11 | COc1cc(C2SCC(=O)N2NC(=O)c2ccc(NC(C)=O)cc2)cc(OC)c1OC (centres undefined) | > 100 | > 100 |  | > 100 | > 100 µM | > 100 | > 100 |  | > 100 µM | > 100 µM |  |  |  |  |  |  | 
12 | CCCCN(CCCC)C(=NCc1ccccc1)NC#N | > 100 | 35.3 |  |  | 39.8 µM | 81.7 | 30.1 | 37.1 | 52.1 µM | 65.4 µM |  |  |  |  |  |  | 
13 | [N-]=[N+]=NC1(c2ccccc2)C(=O)Nc2ccccc2C1=O (centres undefined) |  | > 100 | > 100 | > 100 | 75.9 µM | > 100 | > 100 | > 100 | 74.6 µM | > 100 µM |  |  |  |  |  |  | 
14 | CC1=NN(C(=O)CC(=O)Nc2cccc(Cl)c2)C(=O)C1N=Nc1ccc(S(N)(=O)=O)cc1 (centres undefined) | > 100 | > 100 |  |  | > 100 µM | > 100 | > 100 |  | > 100 µM | > 100 µM |  |  |  |  |  |  | 
15 | CC1=NNC(N)=N/C1=C/C(Sc1ccc(Cl)cc1)c1cccs1 (centres undefined) | 57.2 |  | 27.8 | > 100 | 34.7 µM | 35.2 | 25.4 | 9.79 | 28 µM | 29.8 µM |  |  |  |  |  |  | 
16 | C=C[C@]1(C)CC[C@]2(C)C(CC[C@@]3(C)C2C[C@H](O)[C@H](O)[C@@]3(C)O)C1 (some centres undefined) | > 100 | > 100 | > 100 | > 100 |  | > 100 | > 100 | > 100 | > 100 µM | > 100 µM |  |  |  |  |  |  | 
17 | O=C1/C(=C/c2ccccc2S)N=C(c2ccccc2)N1c1ccc2c(c1)Sc1cc(N3C(=O)/C(=C/c4ccccc4S)N=C3c3ccccc3)ccc1N2 | 43.1 | 38.1 | 46.9 | > 100 |  | 35.6 | > 100 | 33.3 | 35 µM | 40.8 µM |  |  |  |  |  |  | 
18 | CCCCCCCCCCCCCCCCOCC(CC(F)(F)P(=O)(O)O)OC(C)=O (centres undefined) |  | > 50 | > 50 | > 50 |  | > 50 | > 50 |  | > 50 µM | > 50 µM |  |  |  |  |  |  | 
19 | COc1ccc(N2C(=O)C3c4[nH]c5ccc(C)cc5c4C4CCC(C(C)C)CC4C3C2=O)cc1 (centres undefined) | > 100 | > 100 | > 100 | > 100 |  | > 100 | > 100 | > 100 | > 100 µM | > 100 µM |  |  |  |  |  |  | 
20 | O=[N+]([O-])c1ccc2nc3ccc([N+](=O)[O-])cn3c2c1 | > 100 |  | > 100 | > 100 | > 100 µM | > 100 | > 100 | > 100 | > 100 µM | > 100 µM |  |  |  |  |  |  | 
21 | CC1=NN(c2nc(N)nc(/C(C#N)=C/c3ccncc3)n2)C(C)(C)C1 | > 100 |  | > 100 | > 100 | > 100 µM |  | > 100 | > 100 | > 100 µM | > 100 µM |  |  |  |  |  |  | 
22 | O=C(c1cccs1)N(C(=S)N1CCN(c2ccccc2)CC1)c1ccccc1 | > 100 | > 100 |  |  | > 100 µM | > 100 | > 100 | > 100 | > 100 µM | > 100 µM |  |  |  |  |  |  | 
